{
  "source": "patent US20250344693A1",
  "about": "“HERBICIDE SUSPENSION CONCENTRATES AND METHOD FOR THEIR PREPARATION” (NUFARM AUSTRALIA LIMITED, priority 2022, published 2025)",
  "test": "Hot solution temperature: homogeneous solution of active with excipient or second active",
  "type": "physicochemical",
  "method": "Numerous materials may act to form solutions of agrochemicals at elevated temperature. The solubility of MCPA, 2,4-D) and mecoprop with a range of common excipients was assessed at elevated temperature. To establish the melting behaviour of the individual actives, each active (1.25 g) was weighed into a 40 mL vial and heated gradually using a hotplate and Asynt heating insert until full melted, and the melting range was noted. […] To establish hot solvent behaviour, a range of excipients were weighed into 40 mL vials (0.676 g) with each chosen active (1.25 g). The mixtures were then heated gradually until a fully homogeneous solution was observed and the temperature was noted as described above. Additionally, the potential for agrochemicals to act as solvents for a second agrochemical at elevated temperature was also studied by combining the active ingredients in a ratio of 1.85:1 active:active ‘solvent’ following the same procedure as described above. For example, in a mixture where the first active was MCPA (1.25 g) and the second was mecoprop (0.676 g) both actives were added to a 40 mL vial and heated following the procedure detailed above. Where a homogeneous phase is observed below the measured melting point of the study active ingredient, a hot solution is considered to have been formed and the excipient is deemed to act as a solvent at elevated temperature.\nWhere the “solvent” is listed as “None”, the temperature stated represents the formation of a homogeneous melt.",
  "data": [
    {"smiles": "O=C(O)COc1ccc(Cl)cc1Cl", "note": "[2,4-D, 2,4-dichlorophenoxyacetic acid]", "values": [
      {"measurement": "Solution temp range (° C.)", "setting": "2nd active Dichloroprop-P as solvent, ratio 1.85:1", "result": "130-132 °C"},
      {"measurement": "Solution temp range (° C.)", "setting": "2nd active MCPA as solvent, ratio 1.85:1", "result": "140-142 °C"},
      {"measurement": "Solution temp range (° C.)", "setting": "2nd active Mecoprop as solvent, ratio 1.85:1 active:active solvent", "result": "130-131 °C"},
      {"measurement": "temperature range where homogeneous solutions formed (° C.)", "setting": "solvent 1,2-Propanediol", "result": "110-112 °C"},
      {"measurement": "temperature range where homogeneous solutions formed (° C.)", "setting": "solvent Altox 4894", "result": "121-125 °C"},
      {"measurement": "temperature range where homogeneous solutions formed (° C.)", "setting": "solvent Altox 4912", "result": "138-140 °C"},
      {"measurement": "temperature range where homogeneous solutions formed (° C.)", "setting": "solvent Altox 4913", "result": "116-120 °C"},
      {"measurement": "temperature range where homogeneous solutions formed (° C.)", "setting": "solvent Atlas G5000", "result": "129-131 °C"},
      {"measurement": "temperature range where homogeneous solutions formed (° C.)", "setting": "solvent Atlox 4915", "result": "134-137 °C"},
      {"measurement": "temperature range where homogeneous solutions formed (° C.)", "setting": "solvent Atlox 4916", "result": "140-141 °C"},
      {"measurement": "temperature range where homogeneous solutions formed (° C.)", "setting": "solvent Atplus 245", "result": "123-126 °C"},
      {"measurement": "temperature range where homogeneous solutions formed (° C.)", "setting": "solvent Atplus PFA", "result": "127-130 °C"},
      {"measurement": "temperature range where homogeneous solutions formed (° C.)", "setting": "solvent Atplus UEP", "result": "132-135 °C"},
      {"measurement": "temperature range where homogeneous solutions formed (° C.)", "setting": "solvent Crodamol AB", "result": "136-138 °C"},
      {"measurement": "temperature range where homogeneous solutions formed (° C.)", "setting": "solvent Crodamol GTCC", "result": "138-140 °C"},
      {"measurement": "temperature range where homogeneous solutions formed (° C.)", "setting": "solvent Dipropylene glycol dimethyl ether", "result": "114-116 °C"},
      {"measurement": "temperature range where homogeneous solutions formed (° C.)", "setting": "solvent Genapol X020", "result": "118-121 °C"},
      {"measurement": "temperature range where homogeneous solutions formed (° C.)", "setting": "solvent Genapol X050", "result": "120-123 °C"},
      {"measurement": "temperature range where homogeneous solutions formed (° C.)", "setting": "solvent Genapol X060", "result": "118-122 °C"},
      {"measurement": "temperature range where homogeneous solutions formed (° C.)", "setting": "solvent Genapol X080", "result": "118-121 °C"},
      {"measurement": "temperature range where homogeneous solutions formed (° C.)", "setting": "solvent Glycerol, 1.25 g active, 0.676 g excipient", "result": "116-118 °C"},
      {"measurement": "temperature range where homogeneous solutions formed (° C.)", "setting": "solvent Multiwet MO85", "result": "140-143 °C"},
      {"measurement": "temperature range where homogeneous solutions formed (° C.)", "setting": "solvent PEG 400", "result": "122-123 °C"},
      {"measurement": "temperature range where homogeneous solutions formed (° C.)", "setting": "solvent PEG 1000", "result": "124-126 °C"},
      {"measurement": "temperature range where homogeneous solutions formed (° C.)", "setting": "solvent PEG 4000", "result": "134-136 °C"},
      {"measurement": "temperature range where homogeneous solutions formed (° C.)", "setting": "solvent Pluronic F68", "result": "137-140 °C"},
      {"measurement": "temperature range where homogeneous solutions formed (° C.)", "setting": "solvent Pluronic F127", "result": "137-140 °C"},
      {"measurement": "temperature range where homogeneous solutions formed (° C.)", "setting": "solvent Propylene glycol", "result": "110-112 °C"},
      {"measurement": "temperature range where homogeneous solutions formed (° C.)", "setting": "solvent Synperonic PE/L31", "result": "129-130 °C"},
      {"measurement": "temperature range where homogeneous solutions formed (° C.)", "setting": "solvent Synperonic PE/L64", "result": "132-135 °C"},
      {"measurement": "temperature range where homogeneous solutions formed (° C.)", "setting": "solvent Synprolam 35X15", "result": "123-126 °C"},
      {"measurement": "temperature range where homogeneous solutions formed (° C.)", "setting": "solvent Tween 22", "result": "120-124 °C"},
      {"measurement": "temperature range where homogeneous solutions formed (° C.)", "setting": "solvent Tween 23", "result": "120-124 °C"},
      {"measurement": "temperature range where homogeneous solutions formed (° C.)", "setting": "solvent Tween 24", "result": "120-124 °C"}
    ]}
  ]
}
